# Patent publication US11844801B2, “Oral compositions of MK2 pathway inhibitor for treatment of immune conditions” (priority 2020, dated 2023)
# Where “and” joins values, the source holds several entries; their conditions need not be identical. Identical values can stand only once. Like-named read-outs stand apart in the source and are kept apart here.
# Assay: Phase 1 SAD/MAD pharmacokinetics of oral ATI-450 in healthy subjects (incl. 80/120 mg BID extension)
# Assay type: in vivo, human
# Conditions: for concentration at 7 day / concentration at 2 day / concentration at 3 day / concentration at 4 day / concentration at 5 day / concentration at 6 day: read-out: Ctrough; for Tmax: read-out: Tmax, median (min, max); for concentration at 2 day: day 2; for concentration at 3 day: day 3; for concentration at 4 day: day 4; for concentration at 5 day: day 5; for concentration at 6 day: day 6; for half-life: read-out: t1/2 (converted)
# Experimental: Study Design. […] Single ascending dose (SAD) cohorts. […] Multiple ascending dose (MAD) cohorts. […] Blood Sampling and Bioanalysis. Two-milliliter blood samples were collected for PK analysis. […] The lower limit of quantification was 0.500 ng/mL. Pharmacokinetics. […] Bioanalysis Assay of ATI-450. Sample processing was performed by protein precipitation using a 50.0-μL sample volume. […] A triple quadrupole 6500 mass spectrometer equipped with a turbo-ion spray source was used for detection in positive ion mode. […] A linear calibration curve ranging from 0.500 to 500 ng/mL with a 1/x^2 weighting factor was used. The method was minimally required to have intra- and inter-day precision (coefficients of variation) for pooled plasma quality control samples of ≤15% except at the lower limit of quantitation, where ≤20% was acceptable. The calculated concentrations (both inter- and intra-day) were required to be within 15% of nominal at all concentrations except the lower limit of quantitation, where up to 20% deviation from nominal was acceptable. The precision and accuracy of the method exceeded these minimum requirements for assay validation.
# [1] = 100 mg single dose, fed vs fasted
# [2] = both sexes, human, plasma, oral, 10 mg, 10 mg BID
# [3] = both sexes, human, plasma, oral, 10 mg, 10 mg BID, day 7
# [4] = both sexes, human, plasma, oral, 30 mg, 30 mg BID
# [5] = both sexes, human, plasma, oral, 30 mg, 30 mg BID, day 7
# [6] = both sexes, human, plasma, oral, 50 mg, 50 mg BID, day 1
# [7] = both sexes, human, plasma, oral, 50 mg, 50 mg BID
# [8] = both sexes, human, plasma, oral, 50 mg, 50 mg BID, day 7
structure (smiles),measurement,setting,value
"Cc1cnc(-c2ccnc(C(C)(C)O)n2)cc1-n1c(C)cc(OCc2ncc(F)cc2F)c(Cl)c1=O (single isomer, unassigned) [ATI-450, 3-chloro-4-((3,5-difluoropyridin-2-yl)methoxy)-2′-(2-(2-hydroxypropan-2-yl)pyrimidin-4-yl)-5′,6-dimethyl-2H-[1,4′-bipyridin]-2-one]",AUC(0-t),"10 mg BID, day 7",364.6 ± 110.7 ng·h/mL
same,AUCtau,"10 mg BID, day 7",287.8 ± 81.5 ng·h/mL
same,CLss/F,"10 mg BID, day 7",37.4 ± 10.9 L/h
same,Cavg,"10 mg BID, day 7",24.0 ± 6.8 ng/mL
same,Cmin,"10 mg BID, day 7",8.1 ± 3.1 ng/mL
same,Ctrough,"10 mg BID, day 7",11.8 ± 5.2 ng/mL
same,"Tmax, median (min, max)","10 mg BID, day 7",2.0 (2.0-2.0) h
same,Vss/F,"10 mg BID, day 7",517.4 ± 203.2 L
same,AUC(0-t),"30 mg BID, day 7",1204.6 ± 309.1 ng·h/mL
same,AUCtau,"30 mg BID, day 7",908.9 ± 163.1 ng·h/mL
same,CLss/F,"30 mg BID, day 7",33.9 ± 5.9 L/h
same,Cavg,"30 mg BID, day 7",75.6 ± 13.4 ng/mL
same,Cmin,"30 mg BID, day 7",28.8 ± 10.7 ng/mL
same,Ctrough,"30 mg BID, day 7",41.1 ± 18.3 ng/mL
same,"Tmax, median (min, max)","30 mg BID, day 7",2.0 (1.0-4.0) h
same,Vss/F,"30 mg BID, day 7",483.1 ± 85.1 L
same,t1/2,"30 mg BID, day 7",10.3 ± 3.2 h
same,"Tmax, median (min, max)","50 mg BID, day 1",2.0 (2.0-4.0) h
same,AUC0-12,"50 mg BID, day 7",1507.8 (659.9) ng · h/mL
same,CLss/F,"50 mg BID, day 7",37.3 ± 11.7 L/h
same,Cavg,"50 mg BID, day 7",125.6 ± 55.0 ng/mL
same,Cmax,"50 mg BID, day 7",219.0 (77.8) ng/mL
same,Cmin,"50 mg BID, day 7",58.7 ± 32.8 ng/mL
same,Ctrough,"50 mg BID, day 7",87.9 ± 49.4 ng/mL
same,"Tmax, median (min, max)","50 mg BID, day 7","3.0 (1.0, 4.0) h and 3.0 (1.0-4.0) h"
same,CLss/F,"80 mg BID, day 7",33.2 ± 7.6 L/h
same,Ctrough,"80 mg BID, day 7",158.3 ± 60.3 ng/mL
same,AUC0-∞ higher in the fed state,[1],about 24%
same,Cmax lower in the fed state,[1],about 9%
same,CLss/F,"120 mg BID, day 7",52.3 ± 17.4 L/h
same,Ctrough,"120 mg BID, day 7",155.8 ± 93.1 ng/mL
same,accumulation after multiple dosing,10-50 mg BID,up to 1.4 fold
same,"terminal half-life (mean t1/2), range over cohorts","MAD cohorts 10-50 mg BID, day 7",9 to 12 h
same,concentration at 7 day,"both sexes, human, plasma, oral, 10 mg BID, day 7",11.8 ng/mL
same,AUC(0-t),"both sexes, human, plasma, oral, 10 mg, 10 mg BID, day 1, read-out: AUC0-12",200 ng·h/mL
same,Cmax,"both sexes, human, plasma, oral, 10 mg, 10 mg BID, day 1, read-out: Cmax",34.3 ng/mL
same,Tmax,"both sexes, human, plasma, oral, 10 mg, 10 mg BID, day 1",2 h
same,concentration at 2 day,[2],10.1 ± 4.7 ng/mL
same,concentration at 3 day,[2],9.8 ± 4.5 ng/mL
same,concentration at 4 day,[2],9.2 ± 5 ng/mL
same,concentration at 5 day,[2],9.6 ± 4.7 ng/mL
same,concentration at 6 day,[2],10.7 ± 4.9 ng/mL
same,AUC(0-t),"both sexes, human, plasma, oral, 10 mg, 10 mg BID, day 7, read-out: AUC0-12",288 ng·h/mL
same,Cmax,"both sexes, human, plasma, oral, 10 mg, 10 mg BID, day 7, read-out: Cmax",51.8 ng/mL
same,Tmax,[3],2 h
same,half-life,[3],9.6 h
same,concentration at 7 day,"both sexes, human, plasma, oral, 30 mg BID, day 7",41.1 ng/mL
same,AUC(0-t),"both sexes, human, plasma, oral, 30 mg, 30 mg BID, day 1, read-out: AUC0-12",681 ng·h/mL
same,Cmax,"both sexes, human, plasma, oral, 30 mg, 30 mg BID, day 1, read-out: Cmax",126 ng/mL
same,Tmax,"both sexes, human, plasma, oral, 30 mg, 30 mg BID, day 1",2 h
same,concentration at 2 day,[4],37.5 ± 18.8 ng/mL
same,concentration at 3 day,[4],44.1 ± 29.3 ng/mL
same,concentration at 4 day,[4],36.8 ± 14.9 ng/mL
same,concentration at 5 day,[4],34.9 ± 13.8 ng/mL
same,concentration at 6 day,[4],38.9 ± 16.2 ng/mL
same,AUC(0-t),"both sexes, human, plasma, oral, 30 mg, 30 mg BID, day 7, read-out: AUC0-12",909 ng·h/mL
same,Cmax,"both sexes, human, plasma, oral, 30 mg, 30 mg BID, day 7, read-out: Cmax",146 ng/mL
same,Tmax,[5],2 h
same,half-life,[5],10.3 h
same,concentration at 7 day,"both sexes, human, plasma, oral, 50 mg BID, day 7",87.9 ng/mL
same,AUC,[6],1180 ± 340 ng·h/mL
same,AUC(0-t),"both sexes, human, plasma, oral, 50 mg, 50 mg BID, day 1, read-out: AUC0-12",1180 ng·h/mL
same,AUC(0-t),"both sexes, human, plasma, oral, 50 mg, 50 mg BID, day 1, read-out: AUC0-t",1180 ± 340 ng·h/mL
same,Cmax,"both sexes, human, plasma, oral, 50 mg, 50 mg BID, day 1, read-out: Cmax",187 ng/mL
same,Tmax,[6],2 h
same,concentration at 2 day,[7],84 ± 40.6 ng/mL
same,concentration at 3 day,[7],80.6 ± 44.2 ng/mL
same,concentration at 4 day,[7],81.5 ± 49.6 ng/mL
same,concentration at 5 day,[7],81.5 ± 43.9 ng/mL
same,concentration at 6 day,[7],76.4 ± 38.6 ng/mL
same,AUC,[8],1510 ± 660 ng·h/mL
same,AUC(0-t),"both sexes, human, plasma, oral, 50 mg, 50 mg BID, day 7, read-out: AUC0-12",1510 ng·h/mL
same,AUC(0-t),"both sexes, human, plasma, oral, 50 mg, 50 mg BID, day 7, read-out: AUC0-24, total daily exposure calculated as AUC0-12 × 2",3040 ng·h/mL
same,AUC(0-t),"both sexes, human, plasma, oral, 50 mg, 50 mg BID, day 7, read-out: AUC0-t",2260 ± 1070 ng·h/mL
same,Cmax,"both sexes, human, plasma, oral, 50 mg, 50 mg BID, day 7, read-out: Cmax",219 ng/mL
same,Tmax,[8],3 h
same,half-life,[8],11.6 h
same,concentration at 7 day,"both sexes, human, plasma, oral, 80 mg BID, day 7",158 ng/mL
same,AUC,"both sexes, human, plasma, oral, 80 mg, 80 mg BID, day 1",1690 ± 454 ng·h/mL
same,AUC(0-t),"both sexes, human, plasma, oral, 80 mg, 80 mg BID, day 1, read-out: AUC0-t",1680 ± 451 ng·h/mL
